Laboratory results from PMC9636434, “Discovery of small molecule agonists of the Relaxin Family Peptide Receptor 2” (Communications Biology, 2022).
“And” between values parts separate entries of the source, which are not always exact repeats. Equal values may be shown once.

Experiments:
Format in all cases: cell-based
[1] = biological target: RXFP2 (Homo sapiens, UniProt Q8WXD0); assay: HTRF cAMP assay in HEK-RXFP2 cells (stably transfected; also primary HTS); parameters: FLAG (N); expressed in transfected cells; details: Fig. 1a, initial hit and enantiomers
RXFP2, sequence (Q8WXD0 whole entry): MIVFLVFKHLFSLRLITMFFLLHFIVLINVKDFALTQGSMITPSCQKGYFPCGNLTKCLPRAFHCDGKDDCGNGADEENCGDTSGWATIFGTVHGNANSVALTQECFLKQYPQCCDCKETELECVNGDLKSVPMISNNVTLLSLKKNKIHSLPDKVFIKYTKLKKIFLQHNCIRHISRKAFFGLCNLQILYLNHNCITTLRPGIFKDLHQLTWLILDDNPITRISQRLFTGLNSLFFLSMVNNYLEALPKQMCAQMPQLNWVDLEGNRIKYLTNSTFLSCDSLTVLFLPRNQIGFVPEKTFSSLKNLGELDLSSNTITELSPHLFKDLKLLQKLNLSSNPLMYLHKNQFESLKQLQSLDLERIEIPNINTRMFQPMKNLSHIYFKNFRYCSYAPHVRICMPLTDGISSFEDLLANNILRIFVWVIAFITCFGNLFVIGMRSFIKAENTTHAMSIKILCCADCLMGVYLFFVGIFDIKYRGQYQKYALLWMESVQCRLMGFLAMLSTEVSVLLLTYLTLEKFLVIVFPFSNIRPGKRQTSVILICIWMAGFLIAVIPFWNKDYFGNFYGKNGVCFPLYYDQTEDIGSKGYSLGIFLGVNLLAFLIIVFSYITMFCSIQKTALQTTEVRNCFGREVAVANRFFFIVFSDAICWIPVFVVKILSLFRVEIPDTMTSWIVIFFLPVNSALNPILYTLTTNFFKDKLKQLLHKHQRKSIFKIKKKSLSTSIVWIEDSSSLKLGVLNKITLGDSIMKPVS
Method: A quantitative high-throughput screening (HTS) of more than 80 K compounds of the NCATS/NIH diversity collection was performed at four concentrations in HEK293T cells stably expressing human RXFP2 to identify candidate agonists. A homogenous time resolved fluorescence (HTRF) assay was used to directly detect compound-induced cAMP accumulation, with forskolin or human recombinant INSL3 serving as positive controls. […] A confirmatory CRE-luciferase cAMP screen was used to eliminate any potential false positives due to assay detection artifacts (Supplementary Fig. 1a).
The cAMP response induced by the compounds was normalized to the cAMP response induced by 100 nM INSL3 as 100% efficacy and the cAMP response induced by DMSO vehicle as 0% efficacy. Emax and EC50 were calculated using four parameter nonlinear fit dose-response stimulation curves. […] Molecular weight (MW).
The HTRF Gs dynamic cAMP assay kit (CisBio, Bedford, MA) was used to measure intracellular cAMP accumulation in HEK293T cells (ATCC, Manassas, VA)[56]. […] The cell stock was verified mycoplasma free and authenticated by ATCC. Transient transfection was accomplished by treating cells in a 6-well plate with a mixture of 2 μg plasmid and 6 μL Lipofectamine 2000 (Invitrogen, Waltham, MA) per manufacturer’s protocol and incubating overnight. For cAMP measurement in 96-well format, HEK293T cells stably transfected with human RXFP2 (HEK-RXFP2), human RXFP1 (HEK-RXFP1), mouse Rxfp1 (HEK-Rxfp1) or transiently transfected with human RXFP1-RXFP2 chimeric receptors were seeded between 7500 and 30,000 cells per well, depending on cell line responsiveness, in serum-free DMEM medium and incubated overnight at 37 °C, 5% CO2. After 18 h, cells were treated with a titration of compound, 2 μM forskolin, or DMSO vehicle. Control wells were also treated with a titration of INSL3 (Phoenix Pharmaceuticals, Burlingame, CA) or human recombinant relaxin 2 (Peprotech, Cranbury, NJ). For the RXFP2 antagonist experiment, cells were co-treated with 0.28 μM compound or 30 nM INSL3 and a titration of the INSL3 B dimer antagonist[38],[39]. For the INSL3 allosteric modulation experiment, cells were co-treated with 0.025, 0.0025, or 0.00025 μM of compound and a titration of INSL3. Cells were incubated for 1 h at 37 °C, 5% CO2, and then kit cAMP-d2 and anti-cAMP antibody were added per manufacturer protocol. Plates were incubated for 1 h at room temperature and the signal was read on a CLARIOstar plate reader (BMG Labtech, Ortenberg, Germany) at 665 and 620 nm emission wavelengths.

[2] = biological target: T1, human RXFP4 (Homo sapiens, UniProt Q8TDU9); assay: GloSensor cAMP assay in RXFP4 transiently transfected HEK293T cells; details: for RLU (cAMP, raw): RXFP4, 0.1 µM isoproterenol, replicates (1)-(4)
T1 construct: host or cells: HEK293T (transient)
T1 sequence (Q8TDU9 whole entry): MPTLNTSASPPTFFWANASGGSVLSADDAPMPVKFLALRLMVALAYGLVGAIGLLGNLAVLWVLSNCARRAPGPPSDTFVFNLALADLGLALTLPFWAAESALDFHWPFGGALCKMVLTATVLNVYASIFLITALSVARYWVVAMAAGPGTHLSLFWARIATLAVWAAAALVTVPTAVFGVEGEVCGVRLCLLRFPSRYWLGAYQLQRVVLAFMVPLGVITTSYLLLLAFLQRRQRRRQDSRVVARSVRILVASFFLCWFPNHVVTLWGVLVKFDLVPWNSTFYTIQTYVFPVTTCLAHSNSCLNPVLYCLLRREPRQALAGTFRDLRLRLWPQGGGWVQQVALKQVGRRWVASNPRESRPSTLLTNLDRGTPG

[3] = biological target: T2, human RXFP3 (Homo sapiens, UniProt Q9NSD7); assay: GloSensor cAMP assay in RXFP3 transiently transfected HEK293T cells; details: for RLU (cAMP, raw): RXFP3, 0.1 µM isoproterenol, replicates (1)-(4)
T2 construct: host or cells: HEK293T (transient)
T2 sequence (Q9NSD7 1-469): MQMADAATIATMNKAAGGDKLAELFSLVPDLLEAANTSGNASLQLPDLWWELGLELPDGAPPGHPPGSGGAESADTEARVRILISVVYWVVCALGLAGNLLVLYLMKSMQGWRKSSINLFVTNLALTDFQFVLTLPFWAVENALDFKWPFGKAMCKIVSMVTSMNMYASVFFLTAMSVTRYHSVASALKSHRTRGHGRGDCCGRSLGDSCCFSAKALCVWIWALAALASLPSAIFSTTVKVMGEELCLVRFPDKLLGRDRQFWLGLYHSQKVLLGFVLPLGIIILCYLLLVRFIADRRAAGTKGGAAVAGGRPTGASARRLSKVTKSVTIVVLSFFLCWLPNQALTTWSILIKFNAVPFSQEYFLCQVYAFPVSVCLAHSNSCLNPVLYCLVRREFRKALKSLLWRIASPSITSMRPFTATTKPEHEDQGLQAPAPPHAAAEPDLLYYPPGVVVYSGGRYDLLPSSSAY

[4] = cAMP induced by 0.1 µM isoproterenol

**Q.** How did the “RXFP2 agonist activity in SAR scheme (Active / Inactive)” value [1] turn out when `O=C1Nc2ccc(-c3cccc(C(F)(F)F)c3)cc2C(=O)N2CCN(C(=O)COc3ccccc3)CC12` (centres unmarked) [compound 8685] was run?
**A.** Active

**Q.** How did the “RXFP2 agonist activity in SAR scheme (Active / Inactive)” value [1] turn out when `O=C1Nc2ccc(-c3cccc(C(F)(F)F)c3)cc2C(=O)N2CCN(C(=O)COc3ccccc3)C[C@H]12` [compound 9940] was run?
**A.** Inactive

**Q.** How did the “RXFP2 agonist activity in SAR scheme (Active / Inactive)” value [1] turn out when `O=C1Nc2ccc(-c3cccc(C(F)(F)F)c3)cc2C(=O)N2CCN(C(=O)COc3ccccc3)C[C@@H]12` [compound 9941] was run?
**A.** Active

**Q.** With Relaxin 3 [reference compound] as the compound, how does the “RLU (cAMP, raw)” value ([2]; Log [M] -6.48) read?
**A.** 1291.4 RLU and 1273.39 RLU and 1346.81 RLU and 1344.73 RLU

**Q.** What about the “RLU (cAMP, raw)” value ([2]; Log [M] -7) of the same compound?
**A.** 1098.17 RLU and 1299.02 RLU and 1204.83 RLU and 1290.02 RLU

**Q.** What about the “RLU (cAMP, raw)” value ([2]; Log [M] -7.48) of the same compound?
**A.** 1677.86 RLU and 1738.12 RLU and 1419.53 RLU and 1594.75 RLU

**Q.** What about the “RLU (cAMP, raw)” value ([2]; Log [M] -8) of the same compound?
**A.** 1308.71 RLU and 1324.64 RLU and 953.421 RLU and 1409.83 RLU

**Q.** What about the “RLU (cAMP, raw)” value ([2]; Log [M] -8.48) of the same compound?
**A.** 1529.65 RLU and 1656.39 RLU and 1650.16 RLU and 1971.52 RLU

**Q.** What about the “RLU (cAMP, raw)” value ([2]; Log [M] -9) of the same compound?
**A.** 1954.9 RLU and 1829.54 RLU and 1896.03 RLU and 2124.58 RLU

**Q.** And the “RLU (cAMP, raw)” value ([2]; Log [M] -9.48)?
**A.** 2502.74 RLU and 2781.85 RLU and 2785.32 RLU and 3087.98 RLU

**Q.** And the “RLU (cAMP, raw)” value ([2]; Log [M] -10)?
**A.** 2794.2 RLU and 2602.12 RLU and 2925.02 RLU and 3021.06 RLU

**Q.** And the “RLU (cAMP, raw)” value ([2]; Log [M] -10.48)?
**A.** 3431.68 RLU and 3104.99 RLU and 3415.8 RLU and 3651.73 RLU

**Q.** And the “RLU (cAMP, raw)” value ([2]; Log [M] -11)?
**A.** 3106.51 RLU and 3181.37 RLU and 2993.83 RLU and 2959.05 RLU

**Q.** What about the “RLU (cAMP, raw)” value ([2]; Log [M] -11.48) of the same compound?
**A.** 3672.91 RLU and 3117.85 RLU and 3373.45 RLU and 3185.15 RLU

**Q.** And the “RLU (cAMP, raw)” value ([2]; Log [M] -12)?
**A.** 3273.63 RLU and 3139.78 RLU and 2622.54 RLU and 2913.68 RLU

**Q.** And the “activation of RXFP4 (cAMP inhibition)” value [2, 4]?
**A.** cAMP inhibition was induced

**Q.** What about the “RLU (cAMP, raw)” value ([3]; Log [M] -6.52) of the same compound?
**A.** 1192.27 RLU and 862.59 RLU and 949.473 RLU and 1055.99 RLU

**Q.** And the “RLU (cAMP, raw)” value ([3]; Log [M] -7)?
**A.** 1047.66 RLU and 816.174 RLU and 793.561 RLU and 818.554 RLU

**Q.** And the “RLU (cAMP, raw)” value ([3]; Log [M] -7.52)?
**A.** 956.019 RLU and 1042.31 RLU and 964.35 RLU and 906.626 RLU

**Q.** And the “RLU (cAMP, raw)” value ([3]; Log [M] -8)?
**A.** 852.474 RLU and 715.01 RLU and 962.564 RLU and 860.21 RLU

**Q.** What about the “RLU (cAMP, raw)” value ([3]; Log [M] -8.52) of the same compound?
**A.** 886.989 RLU and 845.333 RLU and 966.73 RLU and 845.928 RLU

**Q.** What about the “RLU (cAMP, raw)” value ([3]; Log [M] -9) of the same compound?
**A.** 816.769 RLU and 926.264 RLU and 1003.03 RLU and 782.254 RLU

**Q.** And the “RLU (cAMP, raw)” value ([3]; Log [M] -9.52)?
**A.** 998.865 RLU and 951.853 RLU and 1093.48 RLU and 960.779 RLU

**Q.** What about the “RLU (cAMP, raw)” value ([3]; Log [M] -10) of the same compound?
**A.** 1300.57 RLU and 1261.3 RLU and 1319.62 RLU and 1454.11 RLU

**Q.** What about the “RLU (cAMP, raw)” value ([3]; Log [M] -10.52) of the same compound?
**A.** 1602.51 RLU and 1583.63 RLU and 1833.56 RLU and 1666.69 RLU

**Q.** What about the “RLU (cAMP, raw)” value ([3]; Log [M] -11) of the same compound?
**A.** 1772.4 RLU and 1591.93 RLU and 1761.07 RLU and 2392.31 RLU

**Q.** And the “RLU (cAMP, raw)” value ([3]; Log [M] -11.52)?
**A.** 1947.57 RLU and 1934.74 RLU and 2203.54 RLU and 1701.42 RLU

**Q.** And the “RLU (cAMP, raw)” value ([3]; Log [M] -12)?
**A.** 1918.12 RLU and 1736.15 RLU and 2144.65 RLU and 2026.1 RLU

**Q.** And the “activation of RXFP3 (cAMP inhibition)” value [3, 4]?
**A.** cAMP inhibition was induced
